Values of other authors as cited in patent US20100262098A1, “ABSORBENT ARTICLE WITH ODOUR CONTROL SUBSTANCE” (SCA Hygiene Products AB, priority 2007, published 2010).

Conditions: autoxidation at 100° C.; not treated with antioxidants

Structure (SMILES) | Relative rate of oxidation
CCCCC/C=C\C/C=C\CCCCCCCC(=O)O [Linoleic acid] | 64
CCCCCCCC/C=C\CCCCCCCC(=O)O [Oleic acid] | 6
CCCCCCCCCCCCCCCCCC(=O)O [Stearic acid] | 0.6
